Laboratory results from patent US8809368B2, “Compounds affecting gap junction activity” (Kansas State University Research Foundation, priority 2006, dated 2014).
≈ marks a conversion by molar mass, not a printed value. Where “and” joins values, the source holds several entries; their conditions need not be identical. Equal values may be shown once.

Key:
Trypanosoma brucei = experiment: Anti-trypanosomal activity, inhibition of T. brucei growth (ATP-bioluminescence luciferase assay); assay type: cell-based; conditions: read-out: IC50 against Trypanosoma brucei
Protocol: The antiparasitic activities of exemplary compounds described here was studied using the anti-trypanosomal activity protocol described in: Rapp M, et al. J Med Chem 2006; 49:2096-102. […] FIG. 1 summarizes the compound inhibition of T. brucei growth. It is seen that compounds of the invention are useful in inhibiting T. brucei growth.
Culturing of Parasites. The bloodstream form of Trypanosoma brucei 427 strain was maintained under the standard cell culture conditions (37° C., 5% CO2). The parasites were grown in complete HMI-9 medium containing 10% FBS, 10% Serum Plus and 1× Penicillin/Streptomycin. (Angew. Chem. Int. Ed. Engl. 2003, 42, 5274-5293).
Luciferase Assay. Luciferase assay was used to measure ATP-bioluminescence in T. brucei cultured in 96-well plates at 37° C. for 48 hours. Parasites were diluted to 1.0×10^5 cells/mL in complete HMI-9 medium. One hundred microliters (100 μL) of the diluted parasites were aliquoted into sterile 96-well flat white opaque culture plates (Greiner). Each compound was serially diluted from 10 μM to 0.1 μM in DMSO and then mixed in the appropriate wells containing parasites. The treated parasites were then incubated for 48 hours at 37° C. with 5% CO2 before monitoring viability. To measure the viability of the parasites after treatment with each compound, the parasites were lysed in the wells by adding 100 μL of CellTiter-Glo™ (Promega). After lysis, the ATP bioluminescence of the 96-well plates was measured with a SpectraFluor Plus multidetection plate reader (Tecan).

[1] = test system: T47D human breast cancer cells; experiment: Soft agar colony growth, T47D cells; assay type: cell-based; conditions: for effect on breast cancer cell colony growth: Table 2
Protocol: Base agar plates were prepared containing 0.8% agar and 0.4% agar in Ham's F12. Cells (5×10^4 cells/33 mm^2 well) were suspended in 100 μl of Ham's F12 with 0.4% agar and plated. These plates were maintained at 37° C. for 7 days and examined for the presence of colonies. Individual colonies of 50 μm or greater were examined. T47D cells were treated with 1, 10 and 100 nM PQ1 and SA (succinic acid) as a solvent control. Individual colonies of 50 μm or greater were examined. Statistical significance, *p<0.05, of at least three experiments
FIG. 3(A) MDA-MB-453 and (B) T47D human breast cancer cells were treated with 10 μM of various quinolines for 7 days. Base agar plates were prepared containing 0.8% agar and 0.4% agar in Ham's F12. Cells (5×10^4 cells/33 mm well) were suspended in 100 μl of Ham's F12 with 0.4% agar and plated. These plates were maintained at 37° C. for 7 days and examined for the presence of colonies. Individual colonies of 40 μm or greater were examined. […] However, PQ3 caused a 2.3-fold increase in colony growth in MDA-MB-453 cells and PQ2 caused a 2.6-fold increase in T47D colony growth compared to DMSO. FIGS. 7 and 8 show MDA-MB-453 and T47D colony growth for various concentrations of PQ1 and SA tested for 7 days. The procedures are generally as described above. The cell colony growth decreased using 10 and 100 nM PQ1 for both cell types.
(§1) Colony Growth Assay: T47D human breast cancer cells were treated with PQ1. Base agar plates were prepared containing 0.8% agar and 0.4% agar in Ham's F12. Cells (5×10^4 cells/33 mm2 well) were suspended in 100 μl of Ham's F12 with 0.4% agar and plated. These plates were maintained at 37° C. for 7 days and examined for the presence of colonies. Individual colonies of 40 um or greater were examined.
Various oncogenes (e.g. ras, raf, neu, src, mos) down-regulate GJIC while several tumor suppressor genes can up-regulate GJIC. […] Cells were grown in soft agar to assess their capacity for anchorage-independent growth, which is a key feature of cell transformation due to the importance of cell-cell and cell-matrix based tumor suppression. MEC and T47D cells were treated with 10, 100, 1000, and 10000 nM PQ1 for 7 days. A graphical presentation of three experiment results is presented in log scale of PQ1 concentration. […] A 100 nM PQ1 inhibits 66% of colony growth compared to controls, without PQ1 treatment or 100 nM succinic acid.
as §1, with “Using Soft Agar. Cells” for “Assay: T47D human breast cancer cells”, “0, 10, 100, 200 and 500 nM PQ1 for 7 days.” for “PQ1.”, “mm^2” for “mm2”, “50 μm” for “40 um”

MDA-MB-453 cells = experiment: Gap junction activity (GJIC), flow cytometry of dye coupling, MDA-MB-453 cells; assay type: cell-based, human; conditions: for effect on gap junction intercellular communication: Table 1
Protocol: FIG. 4(A) MDA-MB-453 and (B) T47D cells were treated with low (500 nM) and high (10 μM) concentrations of PQs for 24 hours. Monolayers of acceptor cell population were grown on 25-cm flasks in the presence of Vibrant DiD. Vybrant DiD in acceptor cells is not able to pass through the gap junctions because of its hydrophobic property. Single cell suspensions of donor treated cells were prepared, labeled with 0.05 μg/ml calcein-AM, incubated at 37 C for 5 minutes. Quantification of dye coupling between the donor and acceptor cells was assessed by dual-excitation flow cytometry. […] Cells treated with 10 μM PQ3 have approximately 40-50% decrease in gap junction activity compared control or DMSO.

MCF-7 = experiment: Gap junction intercellular communication, MCF-7 cells; assay type: cell-based, human; conditions: Table 1
HT29 = experiment: Gap junction intercellular communication, HT29 colon cancer cells; assay type: cell-based; conditions: Table 3
SW620 colon cancer cells = experiment: Gap junction activity, SW620 colon cancer cells; assay type: cell-based
Protocol: However, PQ3 has an opposite effect on mammary cancer cell lines. […] A summary of PQ-mediated GJIC activity and colony growth in breast and colon cancer cells is presented in Tables 1, 2, and 3, as well as FIGS. 10-13. In FIG. 10, SW620 cells were dosed for 24 hours with PQ1 at 100, 200, 300, and 500 nM. The gap junction activity was measured as a percent of control, as previously described. It was seen that all concentrations on PQ1 increased the gap junction activity in SW620 colon cancer cells as compared to the control. In FIG. 11, the effect of PQ1 on the expression of PKCγ was studied at concentrations of 100, 200, 300 and 500 nM PQ1 for 24 hours. It is seen in FIG. 11 that PQ1 has no effect on the expression of PKCγ at the levels tested. In FIGS. 12 and 13, the effect of PQ1 on the colony growth of SW620 colon cancer cells was measured with 1-100 nM PQ1 (FIG. 12) and 10 uM PQ1 (FIG. 13).

Compound | IC50 (Trypanosoma brucei) [mg/L] | colony growth attenuation ([1]; 10 μM, 7 days, compared to control) | colony growth compared to control ([1]; 10, 100, 1000 and 10000 nM, 7 days) | cell colony growth ([1]; 10 and 100 nM, 7 days) | inhibition at 0.1 µM ([1]; Homo sapiens, 168 h, 100 nM, 7 days, compared to controls) [%] | effect on breast cancer cell colony growth [1] | increase of gap junction activity (MDA-MB-453 cells; MDA-MB-453, 500 nM, 24 hours, compared to control) [fold] | increase in GJIC (MDA-MB-453 cells; MDA-MB-453, FIG. 4, 24 hours) | effect on gap junction intercellular communication (MDA-MB-453 cells; MDA-MB-453, 500 nM) | effect on gap junction intercellular communication (MCF-7) | effect on gap junction intercellular communication (HT29) | gap junction activity as compared to the control (SW620 colon cancer cells; 100, 200, 300 and 500 nM, 24 hours) | effect on gap junction intercellular communication (SW620 colon cancer cells; Table 3, 300 nM) | effect on colony growth ([1]; 10 μM, 7 days) | decrease in gap junction activity (GJIC) (MDA-MB-453 cells; 10 μM, 24 hours, compared to control or DMSO) | effect on gap junction intercellular communication (MDA-MB-453 cells; MDA-MB-453, concentration not given) | effect on gap junction intercellular communication (SW620 colon cancer cells; Table 3, 500 nM)
COc1cc(NCCCN)c2nccc(C)c2c1Oc1cccc(C(F)(F)F)c1.O=C(O)CCC(=O)O [PQ1, 6-Methoxy-8-[(3-aminopropyl)amino]-4-methyl-5-(3-trifluoromethylphenyloxy) quinoline succinic acid] | 0.34 | 80-95% | significant inhibition | decreased | 66 | Decrease | 1.5 | 20-50% | Increase | No effect | No effect | increased | Increase | – | – | – | –
COc1cc(N)c2nccc(C)c2c1Oc1cccc(C(F)(F)F)c1 [PQ3, 8-Amino-6-methoxy-4-methyl-5-(3-trifluoromethylphenyloxy)quinoline] | 1.08 (≈ 3.11 µM) | – | – | – | – | Decrease | – | – | – | Decrease | Increase | – | – | inhibitory effect | 40-50% and 50% | Decrease | Increase
